SMILES strings stand for the structures.

Holding throughout (assay type): in vivo
In series [1] the test system is transgenic sugar beet. Put plainly: Damage to transgenic sugar beet (field trial, Table 4). Particulars: application in 3-leaf stage. As for the experimental part:
(§1) Transgenic sugar beet plants with resistance to one or more herbicides (A) were grown together with typical weed plants in the open in 2×5 m plots under natural field conditions; alternatively, the weed population established naturally while the sugar beet plants grew. Treatment with the compositions according to the invention and, for control purposes, with separate application of the active ingredients of the components alone, was carried out under standard conditions with a plot sprayer at an application rate of 200-300 liters of water per hectare in parallel trials in accordance with the scheme of Table 1, i.e. pre-sowing/pre-emergence, […] or post-emergence at the early, medium or late stage.
(§2) At 2, 4, 6 and 8 week intervals after application, the herbicidal activity of the active ingredients or active ingredient mixtures were scored visually by comparing the treated plots with untreated control plots. Damage and development of all aerial plant organs was recorded. The scoring was done using a percentage scale (100% activity=all plants dead; 50% activity=50% of the plants and green plant organs dead; 0% activity=no discernible effect=like control plot). The score values of in each case 4 plots were averaged.

The subject of another series is Echinochloa crus-galli. The experiment in a line: Herbicidal action and selectivity in sugar beet crop (field trial, Table 4). Particulars: application in 3-leaf stage, scoring 4 weeks after application. As for the experimental part: as §1, §2
Series [2] has as its system transgenic sugar beet. The experiment in a line: Damage to transgenic sugar beet - field trial (Table 2). Particulars: application in 2-4-leaf stage. As for the experimental part: as §1, §2
Series [3] concerns Setaria viridis. Put plainly: Herbicidal action in sugar beet - field trial (Table 2). Particulars: application in 2-4-leaf stage, scoring 3 weeks after application. As for the experimental part: as §1
(§3) […] Damage and development of all aerial plant organs was recorded. The scoring was done using a percentage scale (100% activity=all plants dead; 50% activity=50% of the plants and green plant organs dead; 0% activity=no discernible effect=like control plot). The score values of in each case 4 plots were averaged.

The test system of series [4] is Galium aparine. The experiment in a line: Herbicidal action (field trial, Table 7). As to conditions: application in the 4-5-leaf stage, scoring 26 days after application. As for the experimental part:
as §1, §2

The next series concerns Avena fatua. Put plainly: Herbicidal action and selectivity in sugar beet crop (field trial, Table 5). Particulars: application in the 3-5-leaf stage, scoring 4 weeks after application. As for the experimental part: as §1, §2
Series [5] relates to transgenic sugar beet. The experiment in a line: Damage to transgenic sugar beet (field trial, Table 5). As to conditions: application in the 3-5-leaf stage. As for the experimental part: as §1, §2
The test system of series [6] is transgenic sugar beet. Put plainly: Damage to transgenic sugar beet (greenhouse experiment, Table 3). On the set-up: scale not given here. As to conditions: greenhouse Table 3, application in the 4-5-leaf stage.
Series [7] relates to Galium aparine. Put plainly: Herbicidal action in sugar beet crop (greenhouse experiment, Table 3). Particulars: application in the 4-5-leaf stage, scoring 3 weeks after application. The source says: Seeds or rhizomes of monocotyledonous and dicotyledonous weeds are placed in sandy loam soil in cardboard pots, covered with soil and grown in the greenhouse under good growth conditions. […] The compositions according to the
Invention, which are formulated as wettable powders or as emulsion concentrates, are sprayed at various dosages onto the green plant organs at an application rate of 600 to 800 l of water per ha (converted). After the experimental plants have remained in the greenhouse for approx. 3 to 4 weeks under optimal growth conditions, the effect of the preparations is scored visually in comparison with untreated controls. The compositions according to the invention also have a good herbicidal activity against a broad spectrum of economically Important grass weeds and broad-leaved weeds when applied post-emergence.

The subject of the next series is Amaranthus retroflexus. Put plainly: Herbicidal action (field trial, sequential treatment, Table 8). As to conditions: dose 3500 g A.S./ha pre-emergence; scorings 22 days after application. As for the experimental part: as §1, §3
In series [8] the test system is Setaria viridis. Described as above. Particulars: dose 3500 g A.S./ha pre-emergence; scorings 22 days after application. As for the experimental part: as §1, §3

`CCC/C(=N\OCC)C1=C(O)CC(CC(C)SCC)CC1=O` (stereo not shown) [(B4.1), (E,Z)-2-(1-ethoxyimino-butyl)-5-[2-(ethylthio)propyl]-3-hydroxycyclohex-2-enone]: the “Damage to transgenic sugar beet” value in the series on transgenic sugar beet [1] (dose 105 g A.S./ha), in the series with transgenic sugar beet [1] (dose 210 g A.S./ha) and in the series with transgenic sugar beet [1] (dose 315 g A.S./ha) was 0 each time. Also, the “Herbicidal action in % against Echinochloa crus-galli” value in the series on Echinochloa crus-galli (dose 105 g A.S./ha) worked out at 35%; in the series with Echinochloa crus-galli (dose 210 g A.S./ha), 73%; in the series on Echinochloa crus-galli (dose 315 g A.S./ha), 85%.

Consider `Cc1cccc(S(=O)(=O)NC(=O)Nc2nc(OCC(F)(F)F)nc(N(C)C)n2)c1C(=O)O` [(B1.3)], for which the “Damage to transgenic sugar beet” value with transgenic sugar beet [2] (dose 8 g A.S./ha) and in the series with transgenic sugar beet [2] (dose 17 g A.S./ha) was 0 in each case. The results for the “Herbicidal action in % against Setaria viridis” value with Setaria viridis [3] (dose 8 g A.S./ha) and with Setaria viridis [3] (dose 17 g A.S./ha) were 0% and 20%, respectively.

As to `CC(C)N.O=C(O)CNCP(=O)(O)O` [(A2.2), monoisopropylammonlum salt of glyphosate], the “Herbicidal action in % against Galium aparine” value in the series on Galium aparine [4] (dose 125 g A.S./ha) was found to be 10%; with Galium aparine [4] (dose 250 g A.S./ha) it was 40%; in the series with Galium aparine [4] (dose 500 g A.S./ha) it was 60%; with Galium aparine [4] (dose 1000 g A.S./ha) it was 85%.

Regarding `CCOC(=O)C(C)Oc1ccc(Oc2nc3ccc(Cl)cc3o2)cc1` (racemic) [(B3.2), fenoxaprop-ethyl (rac.)], the “Herbicidal action in % against Avena fatua” value worked out at 20% in the series with Avena fatua (dose 15 g A.S./ha), 60% in the series with Avena fatua (dose 30 g A.S./ha) and 85% with Avena fatua (dose 60 g A.S./ha). The “Damage to transgenic sugar beet” value with transgenic sugar beet [5] (dose 15 g A.S./ha), with transgenic sugar beet [5] (dose 30 g A.S./ha) and with transgenic sugar beet [5] (dose 60 g A.S./ha) was 0 in each case.

For the compound `CCCC(=NOCC)C1=C(O)CC(C2CCCSC2)CC1=O` (stereo not shown) [(B4.2), 2-(1-ethoxyiminobutyl)-3-hydroxy-5-thian-3-ylcyclohex-2-enone], the “Damage to transgenic sugar beet” value in the series on transgenic sugar beet [1] (dose 62.5 g A.S./ha), in the series with transgenic sugar beet [1] (dose 125 g A.S./ha) and with transgenic sugar beet [1] (dose 250 g A.S./ha) was 0 in each case. In addition, the figures for the “Herbicidal action in % against Echinochloa crus-galli” value in the series on Echinochloa crus-galli (dose 62.5 g A.S./ha), in the series on Echinochloa crus-galli (dose 125 g A.S./ha) and with Echinochloa crus-galli (dose 250 g A.S./ha) were 45%, 70% and 93%, respectively.

For `COC(=O)Nc1cccc(NC(=O)Oc2cccc(C)c2)c1` [(B2.2), 3-methylphenyl N-[3-(methoxycarbonylamino)phenyl]carbamate], the “Damage to transgenic sugar beet” value in the series on transgenic sugar beet [6] (dose 500 g A.S./ha), in the series on transgenic sugar beet [6] (dose 1000 g A.S./ha) and with transgenic sugar beet [6] (dose 2000 g A.S./ha) was 0 in each case. For the same compound, the “Herbicidal action in % against Galium aparine” value with Galium aparine [4] (dose 500 g A.S./ha) was found to be 20%; in the series on Galium aparine [4] (dose 1000 g A.S./ha), 30%; in the series with Galium aparine [4] (dose 2000 g A.S./ha) it was 30%; with Galium aparine [7] (dose 500 g A.S./ha), 20%; in the series with Galium aparine [7] (dose 1000 g A.S./ha), 30%; in the series with Galium aparine [7] (dose 2000 g A.S./ha), 30%.

Regarding `O=C(O)c1nc(Cl)ccc1Cl` [(B2.4), 3,6-dichloropyridine-2-carboxylic acid], the “Damage to transgenic sugar beet” value with transgenic sugar beet [6] (dose 50 g A.S./ha), with transgenic sugar beet [6] (dose 100 g A.S./ha) and in the series with transgenic sugar beet [6] (dose 200 g A.S./ha) was 0 throughout. Further, the “Herbicidal action in % against Galium aparine” value turned out to be 5% in the series on Galium aparine [7] (dose 50 g A.S./ha), 35% in the series on Galium aparine [7] (dose 100 g A.S./ha) and 45% with Galium aparine [7] (dose 200 g A.S./ha).

`Cc1nnc(-c2ccccc2)c(=O)n1N` [(B1.4), 4-amino-4,5-dihydro-3-methyl-6-phenyl-1,2,4-triazin-5-one]: the “Damage to transgenic sugar beet” value in the series with transgenic sugar beet [6] (dose 750 g A.S./ha), in the series on transgenic sugar beet [6] (dose 1500 g A.S./ha) and in the series on transgenic sugar beet [6] (dose 3000 g A.S./ha) was 0 each time. In addition, the “Herbicidal action in % against Galium aparine” value in the series on Galium aparine [7] (dose 750 g A.S./ha), in the series on Galium aparine [7] (dose 1500 g A.S./ha) and in the series with Galium aparine [7] (dose 3000 g A.S./ha) was 5% in each case. Further, the “Herbicidal action in % against Amaranthus retroflexus” value in the series on Amaranthus retroflexus turned out to be 73%. Further, the “Herbicidal action in % against Setaria viridis” value with Setaria viridis [8] amounted to 20%.
